From patent publication US11957759B1, “Rapidly accelerated fibrosarcoma (RAF) degrading compounds and associated methods of use” (Arvinas Operations, Inc., priority 2022, dated 2024)

Legend:
B-RAF V600E = target: T1, B-RAF V600E (Homo sapiens, UniProt P15056, V600E); test: Target protein degradation, assay C: T-Rex 293 cells, HA-BRAF_V600E, 384 well format; type: cell-based; settings: T-Rex 293 HA-BRAF_V600E cells, 24 hours, Examples 83-269; for DC50: Assay C; for Dmax: T-REx-293, Assay C
T1 construct: expressed in transfected cells; host or cells: T-Rex 293 cells (Invitrogen #R71007)
T1 sequence (P15056 whole entry V600E): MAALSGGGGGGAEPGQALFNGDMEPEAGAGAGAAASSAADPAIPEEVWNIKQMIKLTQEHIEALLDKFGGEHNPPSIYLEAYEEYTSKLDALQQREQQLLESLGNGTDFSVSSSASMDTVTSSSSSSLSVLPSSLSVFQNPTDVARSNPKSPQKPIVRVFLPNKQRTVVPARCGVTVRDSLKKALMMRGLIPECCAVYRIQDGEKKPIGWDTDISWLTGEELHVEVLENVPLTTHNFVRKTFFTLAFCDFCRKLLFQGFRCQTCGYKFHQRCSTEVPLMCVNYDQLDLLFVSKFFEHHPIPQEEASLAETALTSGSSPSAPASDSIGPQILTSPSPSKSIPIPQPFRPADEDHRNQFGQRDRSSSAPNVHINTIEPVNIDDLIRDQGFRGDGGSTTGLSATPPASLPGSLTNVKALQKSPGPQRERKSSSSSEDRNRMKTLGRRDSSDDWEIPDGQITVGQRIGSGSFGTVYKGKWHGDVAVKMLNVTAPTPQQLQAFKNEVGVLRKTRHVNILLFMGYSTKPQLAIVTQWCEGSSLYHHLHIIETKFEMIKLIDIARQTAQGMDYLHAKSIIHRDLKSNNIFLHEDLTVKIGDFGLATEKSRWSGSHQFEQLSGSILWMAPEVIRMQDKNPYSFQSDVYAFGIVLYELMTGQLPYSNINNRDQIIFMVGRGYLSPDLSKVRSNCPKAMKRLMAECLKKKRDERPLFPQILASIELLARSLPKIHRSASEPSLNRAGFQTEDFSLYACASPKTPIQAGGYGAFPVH
How it was run: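 After 24 h exposure to an 11-point 1:3 series (300 nM–5 pM, 0.5% DMSO), fixed T-Rex 293 cells carrying HA-BRAF V600E (induced with 1 ng/mL doxycycline) were stained anti-HA and imaged. DC50 and Dmax were derived from BRAF intensity relative to control, and cytotoxicity from nuclear counts.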

B-RAF G466V = target: T2, B-RAF G466V (Homo sapiens, UniProt P15056, G466V); test: Target protein degradation, assay D: T-Rex 293 cells, HA-BRAF_G466V, 384 well format; type: cell-based; settings: T-Rex 293 HA-BRAF_G466V cells, 24 hours, Examples 83-269; for DC50: Assay D; for Dmax: T-REx-293, Assay D
T2 construct: expressed in transfected cells; host or cells: T-Rex 293 cells (Invitrogen #R71007)
T2 sequence (P15056 whole entry G466V): as the sequence (P15056 whole entry V600E) above, with G466V, E600V counted along it
How it was run: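 Degradation measured by high-content imaging of anti-HA immunofluorescence in fixed T-Rex 293 cells carrying inducible HA-BRAF G466V (1 ng/mL doxycycline), after 24 h PROTAC exposure at 37 °C over 300 nM–5 pM (1:3, 11 points, 0.5% DMSO). Outputs DC50 and Dmax as % of control; nuclei counts against DMSO wells gauge toxicity.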

Row | Structure (SMILES) | DC50 (B-RAF V600E) | Dmax (B-RAF V600E) | DC50 (B-RAF G466V) | Dmax (B-RAF G466V)
1 | N#Cc1c(NS(=O)(=O)N2CC[C@@H](F)C2)ccc(F)c1Oc1ccc2ncn(-c3ccc(N4CCC(CN5CC6(C5)CN(c5cccc7c5C(=O)N(C5CCC(=O)NC5=O)C7=O)C6)CC4)nc3)c(=O)c2c1 (stereo partly drawn) [Example 173, (3R)-N-{2-cyano-3-[(3-{6-[4-({6-[2-(2,6-dioxopiperidin-3-yl)-1,3-dioxo-2,3-dihydro-1H-isoindol-4-yl]-2,6-diazaspiro[3.3]heptan-2-yl}methyl)piperidin-1-yl]pyridin-3-yl}-4-oxo-3,4-dihydroquinazolin-6-yl)oxy]-4-fluorophenyl}-3-fluoropyrrolidine-1-sulfonamide] | 50 to 500 nM | 35 to 70% | > 30 nM | –
2 | N#Cc1c(NS(=O)(=O)N2CC[C@@H](F)C2)ccc(F)c1Oc1ccc2ncn(-c3ccc(N4CC5(CN(CC6CCN(c7cccc8c7C(=O)N(C7CCC(=O)NC7=O)C8=O)CC6)C5)C4)nc3)c(=O)c2c1 (stereo partly drawn) [Example 174, (3R)-N-{2-cyano-3-[(3-{6-[6-({1-[2-(2,6-dioxopiperidin-3-yl)-1,3-dioxo-2,3-dihydro-1H-isoindol-4-yl]piperidin-4-yl}methyl)-2,6-diazaspiro[3.3]heptan-2-yl]pyridin-3-yl}-4-oxo-3,4-dihydroquinazolin-6-yl)oxy]-4-fluorophenyl}-3-fluoropyrrolidine-1-sulfonamide] | 50 to 500 nM | 35 to 70% | 1 to 10 nM | ≤ 35%
3 | N#Cc1c(NS(=O)(=O)N2CC[C@@H](F)C2)ccc(F)c1Oc1ccc2ncn(-c3cnc(N4CCN(CCN5CCN(c6ccc(C7CCC(=O)NC7=O)cc6F)CC5)CC4)nc3)c(=O)c2c1 (stereo partly drawn) [Example 175, (3R)-N-{2-cyano-3-[(3-{2-[4-(2-{4-[4-(2,6-dioxopiperidin-3-yl)-2-fluorophenyl]piperazin-1-yl}ethyl)piperazin-1-yl]pyrimidin-5-yl}-4-oxo-3,4-dihydroquinazolin-6-yl)oxy]-4-fluorophenyl}-3-fluoropyrrolidine-1-sulfonamide] | 5 to 50 nM | 35 to 70% | 1 to 10 nM | 35 to 70%
4 | N#Cc1c(NS(=O)(=O)N2CC[C@@H](F)C2)ccc(F)c1Oc1ccc2ncn(C3COC4(CCN(C(=O)CC5(O)CCN(c6ccc7c(c6)CN([C@H]6CCC(=O)NC6=O)C7=O)CC5)CC4)C3)c(=O)c2c1 (stereo partly drawn) [Example 180, (3R)—N-{2-cyano-3-[(3-{8-[2-(1-{2-[(3S)-2,6-dioxopiperidin-3-yl]-1-oxo-2,3-dihydro-1H-isoindol-5-yl}-4-hydroxypiperidin-4-yl)acetyl]-1-oxa-8-azaspiro[4.5]decan-3-yl}-4-oxo-3,4-dihydroquinazolin-6-yl)oxy]-4-fluorophenyl}-3-fluoropyrrolidine-1-sulfonamide] | 50 to 500 nM | 35 to 70% | > 30 nM | 35 to 70%
5 | CCN(C)S(=O)(=O)Nc1ccc(F)c(Oc2ccc3ncn(-c4ccc(N5CCN(CC6CN(c7ccc8c(c7)CN(C7CCC(=O)NC7=O)C8=O)C6)CC5)cc4)c(=O)c3c2)c1C#N (stereo not shown) [Example 181, 2-[(3-{4-[4-({1-[2-(2,6-dioxopiperidin-3-yl)-1-oxo-2,3-dihydro-1H-isoindol-5-yl]azetidin-3-yl}methyl)piperazin-1-yl]phenyl}-4-oxo-3,4-dihydroquinazolin-6-yl)oxy]-6-{[ethyl(methyl)sulfamoyl]amino}-3-fluorobenzonitrile] | 50 to 500 nM | 35 to 70% | 1 to 10 nM | ≤ 35%
6 | N#Cc1c(NS(=O)(=O)N2CC[C@@H](F)C2)ccc(F)c1Oc1ccc2ncn(-c3ccc(N4CCC(CN5CC(c6ccc([C@H]7CCC(=O)NC7=O)cc6F)C5)CC4)cc3)c(=O)c2c1 [Example 183, (3R)-N-(2-cyano-3-{[3-(4-{4-[(3-{4-[(3R)-2,6-dioxopiperidin-3-yl]-2-fluorophenyl}azetidin-1-yl)methyl]piperidin-1-yl}phenyl)-4-oxo-3,4-dihydroquinazolin-6-yl]oxy}-4-fluorophenyl)-3-fluoropyrrolidine-1-sulfonamide] | 50 to 500 nM | 35 to 70% | > 30 nM | –
7 | N#Cc1c(NS(=O)(=O)N2CC[C@@H](F)C2)ccc(F)c1Oc1ccc2ncn(-c3ccc(N4CCC(CN5CC(c6ccc([C@@H]7CCC(=O)NC7=O)cc6F)C5)CC4)cc3)c(=O)c2c1 [Example 184, (3R)-N-(2-cyano-3-{[3-(4-{4-[(3-{4-[(3S)-2,6-dioxopiperidin-3-yl]-2-fluorophenyl}azetidin-1-yl)methyl]piperidin-1-yl}phenyl)-4-oxo-3,4-dihydroquinazolin-6-yl]oxy}-4-fluorophenyl)-3-fluoropyrrolidine-1-sulfonamide] | 50 to 500 nM | ≤ 35% | > 30 nM | –

The remaining lines, values ahead:

Row | DC50 (B-RAF V600E) | Dmax (B-RAF V600E) | DC50 (B-RAF G466V) | Dmax (B-RAF G466V) | Structure (SMILES)
8 | 50 to 500 nM | 35 to 70% | 1 to 10 nM | 35 to 70% | N#Cc1c(NS(=O)(=O)N2CC[C@@H](F)C2)ccc(F)c1Oc1ccc2ncn(-c3ccc(N4CCN(CCN5CCC(c6ccc7c(c6)CN(C6CCC(=O)NC6=O)C7=O)CC5)CC4)cc3)c(=O)c2c1 (stereo partly drawn) [Example 176, (3R)—N-{2-cyano-3-[(3-{4-[4-(2-{4-[2-(2,6-dioxopiperidin-3-yl)-1-oxo-2,3-dihydro-1H-isoindol-5-yl]piperidin-1-yl}ethyl)piperazin-1-yl]phenyl}-4-oxo-3,4-dihydroquinazolin-6-yl)oxy]-4-fluorophenyl}-3-fluoropyrrolidine-1-sulfonamide]
9 | 5 to 50 nM | 35 to 70% | 1 to 10 nM | 35 to 70% | O=C1CCC(N2Cc3cc(N4CCC(CN5CCN(c6ccc(-n7cnc8ccc(Oc9c(F)ccc(NS(=O)(=O)N%10CC[C@@H](F)C%10)c9F)cc8c7=O)cc6)CC5)CC4)ccc3C2=O)C(=O)N1 (stereo partly drawn) [Example 177, (3R)—N-{3-[(3-{4-[4-({1-[2-(2,6-dioxopiperidin-3-yl)-1-oxo-2,3-dihydro-1H-isoindol-5-yl]piperidin-4-yl}methyl)piperazin-1-yl]phenyl}-4-oxo-3,4-dihydroquinazolin-6-yl)oxy]-2,4-difluorophenyl}-3-fluoropyrrolidine-1-sulfonamide]
10 | 50 to 500 nM | 35 to 70% | 10 to 30 nM | 35 to 70% | N#Cc1c(NS(=O)(=O)N2CC[C@@H](F)C2)ccc(F)c1Oc1ccc2ncn(-c3ccc(N4CCC(OC5CC6(C5)CN(c5ccc7c(c5)CN(C5CCC(=O)NC5=O)C7=O)C6)CC4)cc3)c(=O)c2c1 (stereo partly drawn) [Example 178, (3R)—N-{2-cyano-3-[(3-{4-[4-({2-[2-(2,6-dioxopiperidin-3-yl)-1-oxo-2,3-dihydro-1H-isoindol-5-yl]-2-azaspiro[3.3]heptan-6-yl}oxy)piperidin-1-yl]phenyl}-4-oxo-3,4-dihydroquinazolin-6-yl)oxy]-4-fluorophenyl}-3-fluoropyrrolidine-1-sulfonamide]
11 | 50 to 500 nM | ≥ 70% | 1 to 10 nM | ≥ 70% | N#Cc1c(NS(=O)(=O)N2CC[C@@H](F)C2)ccc(F)c1Oc1ccc2ncn(-c3ccc(N4CCN(CC5CC6(C5)CN(c5ccc7c(c5)CN([C@H]5CCC(=O)NC5=O)C7=O)C6)CC4)cc3)c(=O)c2c1 [Example 179, (3R)—N-(2-cyano-3-{[3-(4-{4-[(2-{2-[(3S)-2,6-dioxopiperidin-3-yl]-1-oxo-2,3-dihydro-1H-isoindol-5-yl}-2-azaspiro[3.3]heptan-6-yl)methyl]piperazin-1-yl}phenyl)-4-oxo-3,4-dihydroquinazolin-6-yl]oxy}-4-fluorophenyl)-3-fluoropyrrolidine-1-sulfonamide]
12 | 50 to 500 nM | ≤ 35% | 1 to 10 nM | 35 to 70% | N#Cc1c(NS(=O)(=O)N2CC[C@@H](F)C2)ccc(F)c1Oc1ccc2ncn(-c3ccc(N4CCC(CN5CC6(CC(c7ccc8c(c7)CN(C7CCC(=O)NC7=O)C8=O)C6)C5)CC4)cc3)c(=O)c2c1 (stereo partly drawn) [Example 182, (3R)-N-{2-cyano-3-[(3-(4-[4-({6-[2-(2,6-dioxopiperidin-3-yl)-1-oxo-2,3-dihydro-1H-isoindol-5-yl]-2-azaspiro[3.3]heptan-2-yl}methyl)piperidin-1-yl]phenyl}-4-oxo-3,4-dihydroquinazolin-6-yl)oxy]-4-fluorophenyl}-3-fluoropyrrolidine-1-sulfonamide]
13 | 50 to 500 nM | 35 to 70% | 10 to 30 nM | ≤ 35% | N#Cc1c(NS(=O)(=O)N2CC[C@@H](F)C2)ccc(F)c1Oc1ccc2ncn(-c3ccc(N4CCC(CN5CCN(CC6CCN(c7ccc8c(c7)CN([C@H]7CCC(=O)NC7=O)C8=O)CC6)CC5)CC4)cc3)c(=O)c2c1 [Example 185, (3R)-N-{2-cyano-3-[(3-{4-[4-({4-[(1-{2-[(3S)-2,6-dioxopiperidin-3-yl]-1-oxo-2,3-dihydro-1H-isoindol-5-yl}piperidin-4-yl)methyl]piperazin-1-yl}methyl)piperidin-1-yl]phenyl}-4-oxo-3,4-dihydroquinazolin-6-yl)oxy]-4-fluorophenyl}-3-fluoropyrrolidine-1-sulfonamide]
